Assay results: patent publication US20240228987A1, “HEXOKINASE-DERIVED PEPTIDES AND THERAPEUTICAL USES THEREOF” (INSERM (INSTITUT NATIONAL DE LA SANTÉ ET DE LA RECHERCHE …, priority 2021, published 2024)
Where a SMILES comes first, the peptide text is derived from it. [ ]: non-standard residue; d: D form. Nle = CCCC[C@H](N)C(=O)O

What was measured:
VDAC [1] = target: T1, VDAC (Homo sapiens, UniProt P21796); test: in-cellulo screening assay: HEK-293 cells transfected with mitoGCaMP2, MJ-induced mitochondrial Ca2+ release through VDAC; type: cell-based
T1 construct: HEK-293 cells, expressing VDAC and HK; endogenous in cells; host or cells: HEK-293 (ATCC), transfected only with the Ca2+ probes mitoGCaMP2 / GCaMP2
Experimental: The activity of the designed compounds was assessed on HEK-293 cells transfected with mitoGCaMP2. 40,000 cells per well were seeded in 96-well-microplates coated with Poly-D-Lysine (reference 655946, Greiner Bio-One, France) in 200 μl of DMEM supplemented with 10% FBS and 1% PS. 24 h after seeding, cells were transfected with 50 ng of mitoGCaMP2 plasmid per well using jet-PRIME reagent (Polyplus-transfection S.A, France) according to the manufacturer's recommendations. 48 h after transfection, a first measure of fluorescence was performed using the microplate reader CLARIOstar® (BMG Labtech, France). This measurement represented the basal level of Ca2+ into the mitochondria upon transfection. After a wash with 100 μl of PBS, cells were incubated with a mixture of pre-heated (37° C.) MJ at a final concentration of 6 mM and compounds at the indicated final concentrations in PBS containing 0.1% DMSO and 5% EtOH. After 35 min in a cell incubator, a second measure of fluorescence was performed using the microplate reader CLARIOstar®. This measure represented the level of mitochondrial Ca2+ according to the peptide activity. Compounds were tested in triplicates per microplates and in three or five independent experiments for each peptide. For dose effect curves, compounds were tested in triplicates per microplates and in three independent experiments. Results are expressed as the ratio between the second and first measures and normalized to the conditions without compounds containing only PBS with 0.1% DMSO and 5% EtOH. Results are expressed as the means±SD in histogram plots and dose response curves using GraphPad Prism software (version 8.0.1).
The biological screening of the peptide is based on the ability of methyl jasmonate (MJ) to binds and detaches HK-1 from mitochondrial VDAC in a time and dose dependent manner.^16,20 For this purpose, we developed an in-cellulo screening assay in which HEK-293 cells, expressing VDAC and HK,25 were transfected with GCaMP2, a cytoplasmic Ca2+-sensing probe, or with mitoGCaMP2, the same probe addressed to mitochondrial matrix. […] MJ that removes HK from VDAC was used to induce a Ca2+ release outside mitochondria measured through a drop in mitoGCaMP2 fluorescence and an increase in GCaMP2 fluorescence in cells.

HEK293 cells = test: Rhod-2 mitochondrial calcium imaging in HEK293 cells, methyl jasmonate (Example 2); type: cell-based; details: methyl jasmonate 6 mM, 40 minutes; 5z peptide 5 μM or AAV9 infection
Experimental: (§1) FIG. 12: AAV9 represents an efficient way to sustain anti-demyelinating peptide expression in target cells. HEK293 cells were infected with a control AAV9 or AAV9-HK peptide or not infected. Two days later cells were incubated with a fluorescent dye Rhod-2 that fluoresces with calcium in mitochondria. 15 minutes later infected cells were incubated with methyl jasmonate (6 mM) and non-infected cells were incubated with methyl jasmonate (6 mM)+5z peptide (5 μM) for 40 minutes. Pictures were taken every 5 minutes imaging Rhod-2 dye.
as §1, with “We produced an” for “FIG. 12:”, “virus expressing HK” for “represents an efficient way to sustain anti-demyelinating”, “5z (AAV9-HK peptide).” for “expression in target cells.”

VDAC [2] = target: T1, VDAC; test: live imaging of HEK-293 cells transfected with mitoGCaMP2 or GCaMP2, MJ treatment; type: cell-based; details: peptide at 33 μM, MJ 6 mM, 30 min
Experimental: (§2) FIG. 5. Time-lapse quantification of mitoGCaMP2 (A) and GCaMP2 (B) fluorescence levels within mitochondria and within the cytosol respectively. Quantifications of fluorescence levels of HEK-293 cells transfected with mitoGCaMP2 (A) and GCaMP2 (B) probes. Control (circle) represents the fluorescence level in mitochondria when treating the cells with the diluents 0.1 DMSO and 5% EtOH used for MJ and compound solubilization. MJ was tested at 6 mM and compound 1a at 33 μM. Statistical analysis using two-way ANOVA followed by Tukeys's multiple comparison tests (N=3 independent experiments). Results are expressed as means±SEM. **p<0.01, ****p<0.0001, ns. non significant. A. U. arbitrary unit
(§3) Live imaging experiments were performed on HEK-293 cells transfected with either the mitoGCaMP2 or the GCaMP2 plasmids. 500,000 cells per well were seeded in 6-well microplate (NUNC, reference 153066, Thermo Fisher Scientific, France) in 1 ml of DMEM supplemented with 10% FBS and 1% PS. 48 h after seeding, cells were transfected with 2 μg of mitoGCaMP2 or GCaMP2 plasmids using jet-PRIME reagent according to the manufacturer's protocol. 48h after transfection, the microplates were placed under a videomicroscope equipped with a humidified chamber at 37° C. and with 5% CO2. Next, 6 mM of pre-heated MJ (37° C.) was added to the wells with or without the peptide 1a at 33 μM in 1 ml of DMEM without red phenol supplemented with 10% FBS and 1% PS, and containing 0.1% DMSO and 5% EtOH. In parallel, wells containing only 1 ml of DMEM without red phenol and with 10% FBS, 1% PS, 0.1% DMSO and 5% EtOH served as control condition. Live imaging acquisition was triggered when adding MJ with or without the peptide 1a. For the control condition, image acquisition was triggered after addition of 1 ml of DMEM without red phenol supplemented with 10% FBS and 1% PS, containing 0.1% DMSO and 5% EtOH. […] Overall, 5 ROIs per condition were analyzed using Zen software (Zen 2.3 lite, Zeiss, France) and ImageJ software (version 1.52o, NIH, USA). Results are expressed as the mean±SEM using GraphPad Prism software (version 8.0.1). […]

VDAC [3] = target: T1, VDAC; test: time-lapse recording of mitochondrial calcium probe mito-GCaMP2 in HEK293 cells treated with MJ and HK1 N-terminal peptides (FIG. 3); type: cell-based; details: peptides at 5 microMolar, MJ 6 mM
Experimental: FIG. 3: Time-lapse recording of fluorescence intensity of the mitochondrial calcium probe in HEK293 cells treated with Methyl Jasmonate (MJ, 6 milliMolar) and Nterminal peptide of wt HK1 (HK1-Nt peptide) or Nterminal peptide of mutated HK1 (HKmut-Nt peptide). HEK 293 cells were transfected with a plasmid expressing mito-GCaMP2. 48 hours later cells were imaged using a Zeiss Axio-observer designed for live-imaging and treated with MJ (6 mM) and/or peptides at 5 microMolar. Peptide sequences: wt HK1 peptide Ac-[…]-NH2 (SEQ ID NO:90), CMT4G-mutated HK1 peptide Ac-[…]-NH2 (SEQ ID NO:91) and Control peptide Ac-[…]-NH2 (SEQ ID NO:92).

[4] = cited from earlier work
VDAC [5] = test: live imaging of HEK-293 cells transfected with mitoGCaMP2 or GCaMP2, MJ treatment; type: cell-based; details: MJ 6 mM
Experimental: as §2, §3

Schwann cells = details: cited from earlier work

T1 sequence (P21796 2-283): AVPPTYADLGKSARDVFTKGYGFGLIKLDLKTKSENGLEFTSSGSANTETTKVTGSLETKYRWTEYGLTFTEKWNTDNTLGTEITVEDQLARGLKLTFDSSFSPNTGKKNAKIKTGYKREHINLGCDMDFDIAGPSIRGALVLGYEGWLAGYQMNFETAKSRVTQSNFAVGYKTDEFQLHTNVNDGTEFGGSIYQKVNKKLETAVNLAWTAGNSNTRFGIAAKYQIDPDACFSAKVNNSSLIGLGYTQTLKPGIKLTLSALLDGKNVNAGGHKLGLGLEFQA

AQWWAYYYTEWK [5z, tested peptide also contains Tat]
activity / affinity for VDAC on the screening assay (mitoGCaMP2 fluorescence) (VDAC [1]; compounds at 3 μM, MJ 6 mM, compared with 3c, 4d or 5x): more significant | Rhod-2 fluorescence in mitochondria (HEK293 cells): no decrease occurred

CCCC[C@H](NC(C)=O)C(=O)N[C@H](C(=O)N[C@@H](C)C(=O)N[C@@H](C)C(=O)N[C@@H](CCC(N)=O)C(=O)N[C@@H](CC(C)C)C(=O)N[C@@H](CC(C)C)C(=O)N[C@@H](C)C(=O)N[C@@H](Cc1ccc(O)cc1)C(=O)N[C@@H](Cc1ccc(O)cc1)C(=O)N[C@@H](Cc1ccccc1)C(=O)N[C@H](C(=O)N[C@@H](CCC(=O)O)C(=O)N[C@@H](CC(C)C)C(=O)N[C@@H](CCCCN)C(=O)NCC(=O)N[C@@H](CCCNC(=N)N)C(=O)N[C@@H](CCCCN)C(=O)N[C@@H](CCCCN)C(=O)N[C@@H](CCCNC(=N)N)C(=O)N[C@@H](CCCNC(=N)N)C(=O)N[C@@H](CCC(N)=O)C(=O)N[C@@H](CCCNC(=N)N)C(=O)N[C@@H](CCCNC(=N)N)C(=O)N[C@@H](CCCNC(=N)N)C(=O)N1CCC[C@H]1C(=O)N1CCC[C@H]1C(=O)N[C@@H](CCC(N)=O)C(N)=O)[C@@H](C)O)[C@@H](C)CC [1a] (Ac-[Nle]IAAQLLAYYFTELKGRKKRRQRRRPPQ-NH2)
IC50 (VDAC [1]; HEK-293 mitoGCaMP2, MJ 6 mM, 35 min, dose response, read-out: IC50 on mitochondrial Ca2+ release through VDAC): 15.6 ± 2 µM | fluorescence change induced by MJ treatment (mitoGCaMP2 and GCaMP2) (VDAC [2]): blocked

Ac-MGQICQRESATAAEKGRKKRRQRRRPPQ-NH2 [peptide derived from the mutant HK1]
mitochondrial calcium release following MJ treatment (VDAC [3]): no effect

Ac-MIAAQLLAYYFTELKGRKKRRQRRRPPQ-NH2
mitochondrial calcium release following MJ treatment (VDAC [3]): able to prevent mitochondrial calcium release

GRKKRRQRRRPQ [Tat]
half-life in serum [4]: less than 6 min

CC/C=C\CC1C(=O)CCC1CC(=O)OC (centres unmarked) [MJ, Methyl jasmonate]
mitoGCaMP2 fluorescence (mitochondrial Ca2+) (VDAC [5]; at least 30 min): significant decrease | GCaMP2 fluorescence (cytoplasmic Ca2+) (VDAC [5]; same timeframe): increased significantly | Rhod-2 fluorescence in mitochondria (HEK293 cells): decrease | demyelination (Schwann cells): spontaneous demyelination
